Reference: patent US12404304B1, “Telomerase reverse transcriptase (TERT) expression enhancing compounds and methods for using the same” (Sierra Sciences, LLC, priority 2007, dated 2025)

Each molecule was assayed on viable cells in culture (assay: Cell viability assay (CellTiter-Glo Luminescent Cell Viability Assay, ATP quantitation, percent of vehicle control)).

| SMILES | Average Cell Viability after 24 Hours (% DMSO) |
| --- | --- |
| CCOc1cc(C(NC(C)=O)c2cc([N+](=O)[O-])c3cccnc3c2O)ccc1O (stereo not shown) [compound 1033] | 84.43 % DMSO |
| CCCCC(=O)NC(c1ccc(OC)c(OC)c1)c1cc([N+](=O)[O-])c2cccnc2c1O (stereo not shown) [compound 1053] | 59.77 % DMSO |
| CCCCC(=O)NC(c1ccc(OC)cc1)c1cc(Cl)c2cccnc2c1O (stereo not shown) [compound 1061] | 62.27 % DMSO |
| Cc1cc(NC(c2ccccn2)c2ccc3cccnc3c2O)no1 (stereo not shown) [compound 1104] | 71.14 % DMSO |
| CCCC(=O)NC(c1ccc(Cl)cc1)c1cc([N+](=O)[O-])c2cccnc2c1O (stereo not shown) [compound 1044] | 85.35 % DMSO |
| Oc1c(I)cc(I)c2cccnc12 [compound 1018] | 56.90 % DMSO |
| O=C(NC(c1ccccc1)c1ccc2cccnc2c1O)c1ccccc1 (stereo not shown) [compound 1086] | 56.53 % DMSO |
| Cc1ccc(S(=O)(=O)Nc2cc(S(=O)(=O)c3ccc(C)cc3)c(O)c3ncccc23)cc1 [compound 1093] | 66.50 % DMSO |
| CC(=O)NC(c1ccco1)c1cc([N+](=O)[O-])c2cccnc2c1O (stereo not shown) [compound 1034] | 83.39 % DMSO |
| CCN(CC)c1ccc(C(NC(=O)C(C)C)c2ccc3cccnc3c2O)cc1 (stereo not shown) [compound 1060] | 63.44 % DMSO |
| O=C(COc1ccccc1)NC(/C=C/c1ccccc1)c1cc(Cl)c2cccnc2c1O (stereo not shown) [compound 1015] | 74.68 % DMSO |
| CC(=O)NC(c1ccc(Cl)cc1)c1cc([N+](=O)[O-])c2cccnc2c1O (stereo not shown) [compound 1037] | 67.96 % DMSO |
| CCN(CC)c1ccc(C(NC(=O)C(C)C)c2cc(Cl)c3cccnc3c2O)cc1 (stereo not shown) [compound 1011] | 64.50 % DMSO |
| CC(=O)NC(c1cccs1)c1cc(Cl)c2cccnc2c1O (stereo not shown) [compound 1052] | 60.80 % DMSO |
| COC(=O)c1ccc(C(Nc2cc(C)ccn2)c2ccc3ccc(C)nc3c2O)cc1 (stereo not shown) [compound 1008] | 67.58 % DMSO |
| COc1cccc(C(=O)NC(c2ccc(OC)c(OC)c2)c2cc(Cl)c3cccnc3c2O)c1 (stereo not shown) [compound 1013] | 74.96 % DMSO |
| CCCCC(=O)NC(c1ccc2c(c1)OCO2)c1cc([N+](=O)[O-])c2cccnc2c1O (stereo not shown) [compound 1046] | 78.00 % DMSO |
| CCC(=O)NC(c1ccccc1OC)c1cc(Cl)c2cccnc2c1O (stereo not shown) [compound 1043] | 47.47 % DMSO |
| CCCCC(=O)NC(c1ccco1)c1cc([N+](=O)[O-])c2cccnc2c1O (stereo not shown) [compound 1055] | 57.43 % DMSO |
| CC(=O)NC(c1ccccc1Cl)c1ccc2cccnc2c1O (stereo not shown) [compound 1025] | 93.50 % DMSO |
| CCCC(=O)NC(c1ccco1)c1cc(Cl)c2cccnc2c1O (stereo not shown) [compound 1077] | 38.99 % DMSO |
| COc1cccc(C(=O)NC(/C=C/c2ccccc2)c2cc(Cl)c3cccnc3c2O)c1 (stereo not shown) [compound 1017] | 75.48 % DMSO |
| CC(=O)NC(c1ccc(C(C)C)cc1)c1cc(Cl)c2cccnc2c1O (stereo not shown) [compound 1057] | 50.02 % DMSO |
| CC(C)C(=O)NC(c1ccc2c(c1)OCO2)c1cc([N+](=O)[O-])c2cccnc2c1O (stereo not shown) [compound 1064] | 67.37 % DMSO |
| Cc1ccc2c(I)cc(I)c(O)c2n1 [compound 1105] | 58.63 % DMSO |
| CCC(=O)NC(/C=C/c1ccccc1)c1cc([N+](=O)[O-])c2cccnc2c1O (stereo not shown) [compound 1035] | 62.45 % DMSO |
| Oc1ccc(CN2CCN(c3cccc(Cl)c3)CC2)c2cccnc12 [compound 1482] | 80.49 % DMSO |
| CC(=O)NC(c1ccccc1)c1cc([N+](=O)[O-])c2cccnc2c1O (stereo not shown) [compound 1050] | 62.77 % DMSO |
